Tested on: Hamster-Tracheen-Gewebe
Experiment: Reversal of keratinization induced by vitamin A deficiency in hamster tracheal tissue (method of Clamon et al. / Sporn et al.)
Type: cell-based
Settings: in 10^-8 molarer Lösung
Source text: Die erfindungsgemäßen Verbindungen sind in ihrer biologischen Aktivität den bekannten Retinsäureamiden der DE-OS 21 02 586 in etwa vergleichbar. Beispielsweise hebsowohl Retinsäure-N-(ß-hydroxy)-ethylamid als auch die erfindungsgemäßen Retinoide die durch Vitamin A-Hypovitamines induzierte Keratinisierung von Hamster-Tracheen-Gewebe noch in 10^-8 molarer Lösung vollständig auf. Die Methodik hierzu kann G.H. CLAMON et al Nature 250, 64 - 66 (1974) oder M.B. SPORN et al Nature 253, 47 - 50 (1975) entnommen werden. Die Keratinisierung wird als praekanzerotischer Prozes angesehen.

## CC1=C(/C=C/C(C)=C/C=C/C(C)=C/C(=O)NCCO)C(C)(C)CCC1 [Retinsäure-N-(ß-hydroxy)-ethylamid]
  Aufhebung der durch Vitamin A-Hypovitamines induzierten Keratinisierung von Hamster-Tracheen-Gewebe: vollständig
